Where two headings read alike, the source gives them in different places.
Assays:
[1] = biological target: T1, rat histamine H3 receptor (Rattus norvegicus, UniProt Q9QYN8); assay: Rat H3 radioligand binding ([3H]-N-alpha-methylhistamine, SPA)
T1 construct: encoding the entire 445-amino-acid rat histamine H3 receptor; expressed in transfected cells
Source text: The rat H3 receptor cDNA was PCR amplified from reverse-transcribed RNA pooled from rat thalamus, hypothalamus, striatum and prefrontal cortex with a sequence corresponding to by #338-1672 of Genbank file #NM_053506, encoding the entire 445-amino-acid rat histamine H3 receptor. This was engineered into the pIRES-neo3 mammalian expression vector, which was stably transfected into the CHO-A3 cell line (Euroscreen, Belgium), followed by clonal selection by limiting dilution. Cells were harvested and cell pellets were frozen (−80° C.). Cell pellets were resuspended in 5 mM Tris-HCl, pH 7.5 with 5 nM EDTA and a cocktail of protease inhibitors (Complete Protease Inhibitor Tablets, Roche Diagnostics). Cells were disrupted using a polytron cell homogenizer and the suspension was centrifuged at 1000×g for 10 minutes at 4° C. The pellet was discarded and the supernatant centrifuged at 40,000×g for 30 min at 4° C. This membrane pellet was washed in membrane buffer containing 50 mM Tris-HCl, pH 7.5 with 0.6 mM EDTA, 5 mM MgCl2 and protease inhibitors, recentrifuged as above and the final pellet resuspended in membrane buffer plus 250 mM sucrose and frozen at −80° C.
(§1) Membranes were resuspended in 50 mM Tris HCl (pH 7.4), 5 mM MgCl2, 0.1% BSA. The membrane suspensions (10 μg protein per well) were incubated in a 96 well microtiter plate with [^3H]-N-alpha-methylhistamine (approximately 1 nM final concentration), test compounds at various concentrations (0.01 nM-30 μM) and scintillation proximity beads (Perkin Elmer, FlashBlueGPCR Scintillating Beads) in a final volume of 80 μl for 4 hours at room temperature, protected from light. Non-specific binding was determined in the presence of 10 μM clobenpropit. Radioligand bound to receptor, and therefore in proximity to the scintillation beads, was measured using a MicroBeta scintillation counter.

[2] = biological target: T2, human H3 receptor (Homo sapiens, UniProt Q9Y5N1); assay: Human H3 radioligand binding ([3H]-N-alpha-methylhistamine, SPA); conditions: membranes of CHO cells expressing human H3
T2 construct: expressed in transfected cells
T2 sequence (Q9Y5N1 whole entry): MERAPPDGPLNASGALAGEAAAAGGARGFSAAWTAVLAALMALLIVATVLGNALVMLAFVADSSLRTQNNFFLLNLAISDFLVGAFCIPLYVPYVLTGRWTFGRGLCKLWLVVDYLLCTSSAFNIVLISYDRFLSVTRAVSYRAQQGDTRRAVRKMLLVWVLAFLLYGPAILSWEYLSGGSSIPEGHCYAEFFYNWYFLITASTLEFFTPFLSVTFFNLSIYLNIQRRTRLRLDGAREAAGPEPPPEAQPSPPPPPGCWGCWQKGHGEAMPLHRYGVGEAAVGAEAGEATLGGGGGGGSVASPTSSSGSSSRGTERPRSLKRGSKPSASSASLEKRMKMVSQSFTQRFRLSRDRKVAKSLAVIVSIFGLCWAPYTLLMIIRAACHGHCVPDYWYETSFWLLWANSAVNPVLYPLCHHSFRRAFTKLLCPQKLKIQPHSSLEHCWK
Description: Cell pellets were resuspended in 5 mM Tris-HCl, pH 7.5 with 5 nM EDTA and a cocktail of protease inhibitors (Complete Protease Inhibitor Tablets, Roche Diagnostics). Cells were disrupted using a polytron cell homogenizer and the suspension was centrifuged at 1000×g for 10 minutes at 4° C. The pellet was discarded and the supernatant centrifuged at 40,000×g for 30 min at 4° C. This membrane pellet was washed in membrane buffer containing 50 mM Tris-HCl, pH 7.5 with 0.6 mM EDTA, 5 mM MgCl2 and protease inhibitors, recentrifuged as above and the final pellet resuspended in membrane buffer plus 250 mM sucrose and frozen at −80° C.
as §1

[3] = membranes of CHO-A3 cells expressing rat H3, [3H]-N-alpha-methylhistamine, read-out: Rat H3 Ki

T1 sequence (Q9QYN8 whole entry): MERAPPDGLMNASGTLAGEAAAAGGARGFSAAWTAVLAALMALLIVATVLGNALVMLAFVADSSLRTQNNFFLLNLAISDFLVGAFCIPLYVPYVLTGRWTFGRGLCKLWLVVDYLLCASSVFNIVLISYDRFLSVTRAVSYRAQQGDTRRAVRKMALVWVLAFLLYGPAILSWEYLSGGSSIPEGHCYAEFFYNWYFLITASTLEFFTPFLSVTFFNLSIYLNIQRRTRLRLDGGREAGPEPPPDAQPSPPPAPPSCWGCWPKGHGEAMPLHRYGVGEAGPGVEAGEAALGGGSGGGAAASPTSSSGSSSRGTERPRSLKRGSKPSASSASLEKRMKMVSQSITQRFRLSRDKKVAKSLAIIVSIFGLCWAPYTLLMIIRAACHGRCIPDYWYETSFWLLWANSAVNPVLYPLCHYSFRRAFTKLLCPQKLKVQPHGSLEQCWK

SMILES	Ki [1, 3] [nM]	Ki [2] [nM]	Ki [1] [nM]
CC1CCCN1CCCOc1ccc(C(=O)C(C)N2CCOCC2)cc1 (stereo not shown) [Example 27, 1-{4-[3-(2-Methyl-pyrrolidin-1-yl)-propoxy]-phenyl}-2-morpholin-4-yl-propan-1-one]		0.1 to 100	0.1 to 100
C[C@@H]1CCCN1CCCOc1ccc(C(=O)CN2CCCCC2=O)cc1 [Example 22, 1-(2-{4-[3-((R)-2-Methyl-pyrrolidin-1-yl)-propoxy]-phenyl}-2-oxo-ethyl)-piperidin-2-one]	101 to 500	0.1 to 100	
C[C@@H]1CCCN1CCCOc1ccc(C(=O)CN2Cc3ccc(F)cc3C2)cc1 [Example 86, 2-(5-Fluoro-1,3-dihydro-isoindol-2-yl)-1-{4-[3-((R)-2-methyl-pyrrolidin-1-yl)-propoxy]-phenyl}-ethanone]	0.1 to 100	0.1 to 100	
O=C(CN1CCOCC1)c1ccc(OCCCN2CCCC2)cc1 [Example 15, 2-Morpholin-4-yl-1-[4-(3-pyrrolidin-1-yl-propoxy)-phenyl]-ethanone]	501 to 1000	101 to 500	
Cc1nc2ccccc2n1CC(=O)c1ccc(OCCCN2CCC[C@H]2C)cc1 [Example 142, 2-(2-Methyl-benzoimidazol-1-yl)-1-{4-[3-((R)-2-methyl-pyrrolidin-1-yl)-propoxy]-phenyl}-ethanone]	0.1 to 100	0.1 to 100	
C[C@@H]1CCCN1CCCOc1ccc(C(=O)CN2CCCC(F)(F)C2)cc1 [Example 52, 2-(3,3-Difluoro-piperidin-1-yl)-1-{4-[3-((R)-2-methyl-pyrrolidin-1-yl)-propoxy]-phenyl}-ethanone]	0.1 to 100	0.1 to 100	
C[C@@H]1CCCN1CCCOc1ccc(C(=O)C(C)(C)N2CCOCC2)cc1 [Example 54]	0.1 to 100	0.1 to 100	
Cc1cc(OCCCN2CCC[C@H]2C)ccc1C(=O)CN1CCOCC1 [Example 74, 1-{2-Methyl-4-[3-((R)-2-methyl-pyrrolidin-1-yl)-propoxy]-phenyl}-2-morpholin-4-yl-ethanone]	101 to 500	0.1 to 100	
C[C@@H]1CCCN1CCCOc1ccc(C(=O)CN2CCC(F)(F)C2)cc1 [Example 60, 2-(3,3-Difluoro-pyrrolidin-1-yl)-1-{4-[3-((R)-2-methyl-pyrrolidin-1-yl)-propoxy]-phenyl}-ethanone]	0.1 to 100	0.1 to 100	
C[C@@H]1CCCN1CCCOc1ccc(/C(CN2CCOC(c3ccccc3)C2)=N/OC(C)(C)C)cc1 (stereo partly shown) [Example 168]	101 to 500	0.1 to 100	
C[C@@H]1CCCN1CCCOc1ccc(C(=O)CN2CCC(C(F)(F)F)CC2)cc1 [Example 47, 1-{4-[3-((R)-2-Methyl-pyrrolidin-1-yl)-propoxy]-phenyl}-2-(4-trifluoromethyl-piperidin-1-yl)-ethanone]	0.1 to 100	0.1 to 100	
C[C@@H]1CCCN1CCCOc1ccc(/C(CN2CCCCC2)=N/OC(C)(C)C)cc1 [Example 160]	0.1 to 100	0.1 to 100	
C[C@@H]1CCCN1CCCOc1ccc(C(=O)CN2CCCC2=O)cc1 [Example 21, 1-(2-{4-[3-((R)-2-Methyl-pyrrolidin-1-yl)-propoxy]-phenyl}-2-oxo-ethyl)-pyrrolidin-2-one]	101 to 500	0.1 to 100	
C[C@@H]1CCCN1CCCOc1ccc(C(=O)CN2CCCCC2)cc1 [Example 8, 1-{4-[3-((R)-2-Methyl-pyrrolidin-1-yl)-propoxy]-phenyl}-2-piperidin-1-yl-ethanone]	0.1 to 100	0.1 to 100	
O=C(CN1CCOCC1)c1ccc(OCCCN2CCCC2=O)cc1 [Example 67, 1-{3-[4-(2-Morpholin-4-yl-acetyl)-phenoxy]-propyl}-pyrrolidin-2-one]	> 1000	> 1000	
COC(=O)N1CCN(CC(=O)c2ccc(OCCCN3CCC[C@H]3C)c(C)c2)CC1 [Example 137, 4-(2-{3-Methyl-4-[3-((R)-2-methyl-pyrrolidin-1-yl)-propoxy]-phenyl}-2-oxo-ethyl)-piperazine-1-carboxylic acid methyl ester]	0.1 to 100	0.1 to 100	
Cc1cc(C(=O)CN2CCC(F)(F)CC2)ccc1OCCCN1CCC[C@H]1C [Example 136, 2-(4,4-Difluoro-piperidin-1-yl)-1-{3-methyl-4-[3-((R)-2-methyl-pyrrolidin-1-yl)-propoxy]-phenyl}-ethanone]	101 to 500	0.1 to 100	
CC(C)N1CCC(Oc2ccc(C(=O)CN3CCOCC3)cc2)CC1 [Example 45, 1-[4-(1-Isopropyl-piperidin-4-yloxy)-phenyl]-2-morpholin-4-yl-ethanone]	101 to 500	0.1 to 100	
CC1CCCN1CCCOc1ccc(C(CN2CCOCC2)=NOC(C)(C)C)cc1 (racemic) [Example 165]	0.1 to 100	0.1 to 100	
C[C@@H]1CN(CC(=O)c2ccc(OCCCN3CCC[C@H]3C)cc2)C[C@H](C)O1 [Example 38, 2-((2R,6S)-2,6-Dimethyl-morpholin-4-yl)-1-{4-[3-((R)-2-methyl-pyrrolidin-1-yl)-propoxy]-phenyl}-ethanone]	0.1 to 100	0.1 to 100	
C[C@@H]1CCCN1CCCOc1ccc(/C(CN2CCCCC2=O)=N/OC(C)(C)C)cc1 [Example 167]	0.1 to 100	0.1 to 100	

Continued, in another order:

Ki [1, 3] [nM]	Ki [2] [nM]	SMILES	Ki [1] [nM]
0.1 to 100	0.1 to 100	C[C@@H]1CCCN1CCCOc1ccc(C(=O)CN2CCO[C@H](c3ccccc3)C2)cc1 [Example 40, 1-{4-[3-((R)-2-Methyl-pyrrolidin-1-yl)-propoxy]-phenyl}-2-((R)-2-phenyl-morpholin-4-yl)-ethanone]	
0.1 to 100	0.1 to 100	Cc1cc(C(=O)CN2CCN(C(=O)c3ccccc3)CC2)ccc1OCCCN1CCC[C@H]1C [Example 107, 2-(4-Benzoyl-piperazin-1-yl)-1-{3-methyl-4-[3-((R)-2-methyl-pyrrolidin-1-yl)-propoxy]-phenyl}-ethanone]	
0.1 to 100	0.1 to 100	C[C@@H]1CCCN1CCCOc1ccc(C(=O)CN2CCN(C(=O)c3ccccc3)CC2)c(F)c1 [Example 103, 2-(4-Benzoyl-piperazin-1-yl)-1-{2-fluoro-4-[3-((R)-2-methyl-pyrrolidin-1-yl)-propoxy]-phenyl}-ethanone]	
0.1 to 100	0.1 to 100	C[C@@H]1CCCN1CCCOc1ccc(C(=O)CN2CCN(C(=O)C(F)(F)F)CC2)cc1 [Example 64]	
0.1 to 100	0.1 to 100	C[C@@H]1CCCN1CCCOc1ccc(C(=O)CN2CCO[C@@H](c3ccccc3)C2)cc1 [Example 39, 1-{4-[3-((R)-2-Methyl-pyrrolidin-1-yl)-propoxy]-phenyl}-2-((S)-2-phenyl-morpholin-4-yl)-ethanone]	
0.1 to 100	0.1 to 100	Cc1cc(C)cc(C(=O)N2CCN(CC(=O)c3ccc(OCCCN4CCC[C@H]4C)cc3)CC2)c1 [Example 140, 2-[4-(3,5-Dimethyl-benzoyl)-piperazin-1-yl]-1-{4-[3-((R)-2-methyl-pyrrolidin-1-yl)-propoxy]-phenyl}-ethanone]	
0.1 to 100	0.1 to 100	C[C@@H]1CCCN1CCCOc1ccc(C(=O)CN2CCN(C(=O)c3cccc4ccccc34)CC2)cc1 [Example 133, 1-{4-[3-((R)-2-Methyl-pyrrolidin-1-yl)-propoxy]-phenyl}-2-[4-(naphthalene-1-carbonyl)-piperazin-1-yl]-ethanone]	
0.1 to 100	0.1 to 100	C[C@@H]1CCCN1CCCOc1ccc(C(=O)CN2CCOC(c3ccccc3)C2)cc1 (stereo partly drawn) [Example 29, 1-{4-[3-((R)-2-Methyl-pyrrolidin-1-yl)-propoxy]-phenyl}-2-(2-phenyl-morpholin-4-yl)-ethanone]	
0.1 to 100	0.1 to 100	C[C@@H]1CCCN1CCCOc1ccc(C(=O)CN2Cc3ccccc3C2)cc1 [Example 73, 2-(1,3-Dihydro-isoindol-2-yl)-1-{4-[3-((R)-2-methyl-pyrrolidin-1-yl)-propoxy]-phenyl}-ethanone]	
> 1000	101 to 500	COc1cc(C(=O)CN2CCN(C(=O)c3ccccc3)CC2)ccc1OCCCN1CCC[C@H]1C [Example 112, 2-(4-Benzoyl-piperazin-1-yl)-1-{3-methoxy-4-[3-((R)-2-methyl-pyrrolidin-1-yl)-propoxy]-phenyl}-ethanone]	
0.1 to 100	0.1 to 100	CC(C)COC(=O)N1CCN(CC(=O)c2ccc(OCCCN3CCC[C@H]3C)cc2)CC1 [Example 131, 4-(2-{4-[3-((R)-2-Methyl-pyrrolidin-1-yl)-propoxy]-phenyl}-2-oxo-ethyl)-piperazine-1-carboxylic acid isobutyl ester]	

Reference: patent publication US20140296212A1, “SUBSTITUTED PHENOXYPROPYLCYCLOAMINE DERIVATIVES AS HISTAMINE-3 (H3) RECEPTOR LIGANDS” (CEPHALON, INC., priority 2009, published 2014)
